Active and inactive are the calls of the source.
Key:
[1] = biological target: T1, Heat shock factor protein 1 (Mus musculus, UniProt P38532); assay: inhibition of MG132-induced HSE-luciferase signal, confirmation, cell-based, NIH3T3, luminescence, dose retest (AID 2382); assay type: functional;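 note: NIH3T3 fibroblasts with HSF1-driven luciferase reporter stressed by proteasome inhibitor MG132; luminescence from HSF1-driven luciferase expression after 8 hours of MG132 stress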
T1 sequence (P38532 whole entry): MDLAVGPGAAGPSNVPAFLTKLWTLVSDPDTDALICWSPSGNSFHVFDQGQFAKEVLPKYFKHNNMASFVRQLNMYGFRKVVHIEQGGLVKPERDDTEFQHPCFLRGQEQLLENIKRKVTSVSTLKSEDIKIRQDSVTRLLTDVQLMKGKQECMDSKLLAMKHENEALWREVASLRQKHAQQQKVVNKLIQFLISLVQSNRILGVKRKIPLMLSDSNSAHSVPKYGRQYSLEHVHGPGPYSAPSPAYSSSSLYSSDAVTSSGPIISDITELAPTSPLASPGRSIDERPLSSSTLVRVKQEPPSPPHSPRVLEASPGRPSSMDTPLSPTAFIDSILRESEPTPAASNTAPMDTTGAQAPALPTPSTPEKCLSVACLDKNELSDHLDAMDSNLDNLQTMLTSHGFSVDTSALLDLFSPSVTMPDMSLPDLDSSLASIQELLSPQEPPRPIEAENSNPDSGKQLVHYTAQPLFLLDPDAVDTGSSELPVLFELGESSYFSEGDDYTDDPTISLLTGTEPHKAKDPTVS

[2] = biological target: DNA dC->dU-editing enzyme APOBEC-3A (Homo sapiens, UniProt P31941); assay: Dose Response confirmation of small molecule APOBEC3A DNA Deaminase Inhibitors via a fluorescence-based single-stranded DNA deaminase assay. [Related pubchem assays (depositor defined):AID493011, AID493024]; assay type: functional
[3] = biological target: DNA dC->dU-editing enzyme APOBEC-3G (Homo sapiens, UniProt Q9HC16); assay type: functional;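 note: Dose-response counterscreen measuring inhibition of APOBEC3G DNA deaminase activity, run while confirming APOBEC3A inhibitors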
[4] = biological target: T2, Carboxy-terminal domain RNA polymerase II polypeptide A small phosphatase 1 (Homo sapiens, UniProt Q9GZU7); assay: inhibitors of CTDSP1, concentration-response testing, biochemical assay, absorbance-based, actives from ultra-high-throughput screening (AID 540297); assay type: functional
T2 sequence (Q9GZU7 whole entry): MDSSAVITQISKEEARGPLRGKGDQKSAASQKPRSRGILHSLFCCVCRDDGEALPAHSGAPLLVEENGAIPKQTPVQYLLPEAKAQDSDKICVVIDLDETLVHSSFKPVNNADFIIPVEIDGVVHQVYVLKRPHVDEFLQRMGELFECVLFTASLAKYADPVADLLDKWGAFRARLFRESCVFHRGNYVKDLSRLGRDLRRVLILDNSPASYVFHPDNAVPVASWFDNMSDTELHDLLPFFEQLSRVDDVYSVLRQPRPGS

[5] = biological target: T3, Sphingosine 1-phosphate receptor 4 (Homo sapiens, UniProt O95977); assay: Late-stage fluorescence dose response cell-based assay to identify agonists of the Sphingosine 1-Phosphate Receptor 4 (S1P4): purchased compounds EC50. [Related pubchem assays (depositor defined):AID1509, AID1523, AID1563, AID1686, AID1701, AID1801]; assay type: functional
T3 sequence (O95977 whole entry): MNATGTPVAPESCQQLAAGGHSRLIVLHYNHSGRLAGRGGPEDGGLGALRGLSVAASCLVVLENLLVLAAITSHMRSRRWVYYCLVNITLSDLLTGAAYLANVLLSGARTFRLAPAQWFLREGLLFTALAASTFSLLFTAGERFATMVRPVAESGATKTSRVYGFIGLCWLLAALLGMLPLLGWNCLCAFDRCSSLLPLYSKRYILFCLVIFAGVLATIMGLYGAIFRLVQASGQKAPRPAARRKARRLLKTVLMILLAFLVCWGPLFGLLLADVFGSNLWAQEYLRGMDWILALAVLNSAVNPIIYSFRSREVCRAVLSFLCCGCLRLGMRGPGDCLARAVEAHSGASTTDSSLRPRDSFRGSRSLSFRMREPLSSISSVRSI

[6] = test system: HEK293; assay: NOD1 signaling inhibitors, primary screen, cell-based, luminescence, uHTS (AID 1578); assay type: functional; settings: Homo sapiens
[7] = test system: HEK293; assay: cells; assay type: functional, cell-based; settings: Homo sapiens
[8] = test system: HEK293; assay: cells; assay type: functional, cell-based; settings: Homo sapiens; remark: listed apart in the source
[9] = biological target: T4, Nucleotide-binding oligomerization domain-containing protein 2 (Homo sapiens, UniProt Q9HC29); assay: NOD2 signaling inhibitors, cell-based, luminescence, uHTS, HEK293 (AID 1566); assay type: functional
[10] = test system: HEK293; assay: NOD2 signaling inhibitors in MDP-stimulated cells, cell-based, uHTS, luminescence (AID 2001); assay type: functional; settings: Homo sapiens
[11] = test system: HEK293; assay: cells; assay type: functional, cell-based; settings: Homo sapiens; remark: listed apart in the source
[12] = biological target: T5, Calpain-2 catalytic subunit (Sus scrofa, UniProt P43367); assay: pig calpain II inhibitor potency, dose response, biochemical, fluorogenic peptide substrate (AID 1420); assay type: functional
T5 sequence (P43367 whole entry): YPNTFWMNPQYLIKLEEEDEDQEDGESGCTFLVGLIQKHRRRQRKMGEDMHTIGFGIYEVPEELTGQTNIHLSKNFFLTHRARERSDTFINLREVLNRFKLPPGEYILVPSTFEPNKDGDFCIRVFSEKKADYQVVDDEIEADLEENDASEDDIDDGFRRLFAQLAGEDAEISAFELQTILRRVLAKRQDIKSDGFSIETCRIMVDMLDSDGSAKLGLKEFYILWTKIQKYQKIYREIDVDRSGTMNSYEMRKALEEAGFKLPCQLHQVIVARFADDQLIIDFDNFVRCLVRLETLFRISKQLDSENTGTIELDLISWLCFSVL

[13] = biological target: Tumor necrosis factor (Homo sapiens, UniProt P01375); assay: TNFa-triggered NF-kB activation inhibitors, SAR follow-up, cell-based, revised (AID 2337); assay type: functional
[14] = biological target: Nucleotide-binding oligomerization domain-containing protein 1 (Homo sapiens, UniProt Q9Y239); assay: NOD1 signaling inhibitors, SAR follow-up, revised (AID 2333); assay type: functional
[15] = biological target: T4, Nucleotide-binding oligomerization domain-containing protein 2; assay: PubChem AID 2334; assay type: functional
[16] = test system: HEK293; assay: cells; settings: Homo sapiens
[17] = biological target: T6, Runt-related transcription factor 1/Core-binding factor subunit beta (Homo sapiens, UniProt Q01196+Q13951); assay: inhibitors of RUNX1 Runt–CBFb-SMMHC binding, primary screen, biochemical, FRET, Cerulean-Runt, Venus-CBFb-SMMHC, uHTS (AID 1434); assay type: protein assay;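 note: partner is the CBFb-SMMHC leukemia fusion protein rather than wild-type CBFb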
[18] = biological target: T6, Runt-related transcription factor 1/Core-binding factor subunit beta; assay: inhibitors of RUNX1 Runt–CBFb-SMMHC binding, biochemical, TR-FRET (AID 1438); assay type: protein assay
[19] = test system: T-cell; assay: inhibitors of CD8+ T cell–vesicle binding, dose response, mouse 2C CD8+ T cells, flow cytometry (AID 485284); assay type: functional
[20] = biological target: Troponin, cardiac muscle (Homo sapiens, UniProt P19429+P45379+P63316); assay: Fluorescence-based biochemical high throughput dose response assay for activators of the calcium sensitivity of cardiac Regulated Thin Filaments (RTF). [Related pubchem assays (depositor defined):AID493008, AID493018, AID504382, AID504383]; assay type: protein-complex assay
[21] = biological target: T7, Cannabinoid receptor 2 (Homo sapiens, UniProt P34972); assay: SAR analysis of antagonists of the Cannabinoid Receptor 2 using an Image-Based Assay - Set 2. [Related pubchem assays (depositor defined):AID1961, AID1965]; assay type: functional
[22] = biological target: G-protein coupled receptor 55 (Homo sapiens, UniProt Q9Y2T6); assay: SAR analysis of selective Agonists of GPR55 using an Image-Based Assay - Set 2. [Related pubchem assays (depositor defined):AID1961, AID1965]; assay type: functional
[23] = biological target: T7, Cannabinoid receptor 2; assay: SAR analysis of agonists of the Cannabinoid Receptor 2 using an Image-Based Assay - Set 2. [Related pubchem assays (depositor defined):AID1961, AID1965]; assay type: functional
[24] = biological target: T8, G-protein coupled receptor 35 (Homo sapiens, UniProt Q9HC97); assay: SAR analysis of Agonists of the GPR35 Receptor using an Image-Based Assay - Set 3. [Related pubchem assays (depositor defined):AID1961, AID1965]; assay type: functional
[25] = biological target: T9, Cannabinoid receptor 1 (Homo sapiens, UniProt P21554); assay: SAR analysis of antagonists of the Cannabinoid Receptor 1 using an Image-Based Assay - Set 3. [Related pubchem assays (depositor defined):AID1961, AID1965]; assay type: functional
[26] = biological target: T9, Cannabinoid receptor 1; assay: SAR analysis of agonists of the Cannabinoid Receptor 1 using an Image-Based Assay - Set 3. [Related pubchem assays (depositor defined):AID1961, AID1965]; assay type: functional
[27] = biological target: T8, G-protein coupled receptor 35; assay: SAR analysis of Antagonists of the GPR35 Receptor using an Image-Based Assay - Set 4. [Related pubchem assays (depositor defined):[…]]; assay type: functional
[28] = biological target: Luciferin 4-monooxygenase (Photinus pyralis, UniProt P08659); assay: firefly luciferase enzyme inhibitors, dose response, biochemical, luminescence (AID 1891)
[29] = Luminescence Cell-Based Dose Confirmation HTS to Identify Inhibitors of Platelet Dense Granule Release. [Related pubchem assays: 1663 (Primary HTS), 1678 (Summary of Project)]; assay type: functional
[30] = biological target: Hexokinase HKDC1 (Homo sapiens, UniProt Q2TB90); assay: HKDC1 hexokinase activators, dose response, biochemical, W721R variant (AID 504730); assay type: functional
[31] = biological target: Nonstructural protein 1 (Influenza A virus, UniProt Q194T2); assay type: functional, Influenza A virus (A/California/07/2009(H1N1))
[32] = biological target: Hexokinase-1 (Homo sapiens, UniProt P19367); assay: hexokinase 1 activators, dose response, selectivity assay for HKDC1 activator project, biochemical (AID 504762); assay type: functional
[33] = HeLa cell cytotoxicity, dose response, cytotoxicity control for MgcRacGAP inhibitor project (AID 624300); assay type: functional
[34] = biological target: T10, Rac GTPase-activating protein 1 (Homo sapiens, UniProt Q9H0H5); assay: MgcRacGAP GTPase-activating activity inhibitors, confirmation, biochemical, ADP Hunter fluorescence, primary and confirmatory (AID 624330); assay type: functional
T10 sequence (Q9H0H5 whole entry): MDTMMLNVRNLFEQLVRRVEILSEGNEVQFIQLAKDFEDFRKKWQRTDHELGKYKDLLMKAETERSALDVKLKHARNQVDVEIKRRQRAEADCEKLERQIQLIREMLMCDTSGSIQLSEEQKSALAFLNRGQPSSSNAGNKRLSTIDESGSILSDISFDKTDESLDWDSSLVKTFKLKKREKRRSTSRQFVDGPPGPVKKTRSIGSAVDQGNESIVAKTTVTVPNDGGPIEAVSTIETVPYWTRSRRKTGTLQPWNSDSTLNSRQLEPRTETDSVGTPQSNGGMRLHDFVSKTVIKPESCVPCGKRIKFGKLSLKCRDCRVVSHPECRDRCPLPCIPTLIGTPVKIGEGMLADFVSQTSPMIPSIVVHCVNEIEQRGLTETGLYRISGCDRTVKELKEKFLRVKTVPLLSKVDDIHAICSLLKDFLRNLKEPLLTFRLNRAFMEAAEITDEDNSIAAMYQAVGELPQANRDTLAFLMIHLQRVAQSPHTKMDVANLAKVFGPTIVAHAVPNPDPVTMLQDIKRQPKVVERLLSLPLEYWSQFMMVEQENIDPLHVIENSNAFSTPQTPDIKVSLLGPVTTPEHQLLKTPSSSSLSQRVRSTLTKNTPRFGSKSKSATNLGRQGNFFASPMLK

With `C[N+]1(CC2COC(c3ccco3)O2)CCCCC1` (centres undefined) the EC50 [1] was > 195 µM (not active), the IC50 [2] was 3.15 µM (active) and the IC50 [3] was 3.34 µM (active). For the same compound, the IC50 [4] was 3.23 µM (active).
With `Cc1nn(Cc2ccccc2)c(Cl)c1C(=O)OC(C)C#N` (centres undefined) the EC50 [5] was > 50 µM (inactive).
In the case of `CCc1cc2c3c(c1)C(C)CC(C)(C)N3C(=O)/C2=C1\SC(=O)NC1=O` (centres undefined), the EC50 [6] is reported as 7.46 µM (active), the IC50 [7] is reported as > 20 µM (inactive) and the IC50 [8] is reported as 16.4 µM (active). The EC50 [9] was 10.4 µM (active), the IC50 [10] was 10.8 µM (inactive) and the IC50 [11] was > 20 µM (inactive). The IC50 [12] was 14.3 µM (not active), the IC50 [13] was 8.16 µM (active) and the IC50 [14] was 5.04 µM (active). For the same compound, the IC50 [15] was 5.9 µM (active) and the IC50 [16] was > 20 µM (inactive).
With `Cc1ccc(S(=O)(=O)c2c(N)n(Cc3ccco3)c3nc4ccccc4nc23)cc1` the IC50 [17] was > 100 µM (inactive) and the IC50 [18] was > 100 µM (inactive).
For `Cc1ccc(C(=O)NCCCN2CCOCC2)c(C)c1`, the EC50 [19] was 22.5 µM (inactive).
In the case of `O=C(NC1CCCCC1)c1cccc2c1C(=O)c1ccc(N3CCCC3)cc1S2(=O)=O`, the EC50 [20] is reported as 6.65 µM (active).
In the case of `Cc1ccc(Cl)cc1N1CCN(C(=O)c2cc(S(=O)(=O)N(C)C)ccc2N2CCCC2)CC1`, the IC50 [21] is reported as > 32 µM (inactive), the EC50 [22] is reported as 8.84 µM (active) and the EC50 [23] is reported as > 32 µM (inactive). For the same compound, the EC50 [24] was > 32 µM (inactive), the IC50 [25] was > 32 µM (inactive) and the EC50 [26] was > 32 µM (inactive). The IC50 [27] was > 32 µM (inactive).
For `Cc1nonc1C(=O)N/N=C/c1ccc(O)cc1O`, the EC50 [28] was 0.667 µM (active), the EC50 [29] was 0.136 µM (active) and the EC50 [30] was > 80 µM (inactive). The IC50 [31] was 4.75 µM (active), the EC50 [32] was > 80 µM (inactive) and the CC50 [33] was 100 µM (active). The IC50 [34] was 69.4 µM (active).
